In patent US20200009130A1, “OCULAR DISTRIBUTION AND PHARMACOKINETICS OF LIFITEGRAST FORMULATIONS” (SARcode Bioscience Inc., priority 2016, published 2020):

How the values were obtained:
[1] = literature; cited from earlier work
in vivo = experiment: in vivo; parameters: species or system New Zealand Red/White F1 Cross rabbits; conditions: female, New Zealand Red/White F1 Cross, rabbit
Description: In this experiment, female pigmented rabbits were assigned to receive one of two formulations of lifitegrast (#1 and #2) for 5 consecutive days. Each treatment group consisted of 25 rabbits. Animals received a single topical ocular dose of lifitegrast in each eye b.i.d.
(except on study day 5), approximately 12 hours apart (±1 hour), at a target dose level of 1.75 mg/eye/dose (35 μL/eye/dose). On study day 5, animals were dosed in the morning only. Treatment groups 1 and 2 were dosed on separate days. The in-life portion of the study was conducted in May 2014. This study adhered to the ARVO Statement for the Use of Animals in Ophthalmic and Vision Research and all procedures in the study were in compliance with the Animal Welfare Act Regulations (9 CFR 3).
Fifty female New Zealand Red/White F1 Cross rabbits from Covance Research Products (Denver, Pa., USA) were used in the study. The animals were acclimated to study conditions for 13 days before dose administration. At dosing, the animals weighed 3177 to 4271 g and were at least 6 months of age. Animals were housed individually, in suspended stainless steel cages, with food and water ad libitum, and under a 12-hour light/12-hour darkness cycle throughout the study. Animals were not randomized, but were assigned to animal numbers based on overall health and the results of predose ophthalmic examinations. Ophthalmic examinations were performed by a board-certified veterinary ophthalmologist once at baseline (pre dose) using a Kowa hand-held slit-lamp biomicroscope and an indirect ophthalmoscope with a condensing lens to ensure the study animals were healthy and had no ocular findings pre-treatment.
Formulations for the study that would be representative of the clinical material (confirmed by analytical data) were prepared at Covance Laboratories Inc. In each formulation, lifitegrast was added to dose vehicle while stirring, and pH adjusted with hydrochloric acid (HCl) and/or sodium hydroxide (NaOH). The formulation was stirred until a clear solution was obtained, filtered with a 0.22 μm filter (Millipore® Millex-GV, 0.22 μm, Durapore® PVDF) and stored at approximately 5° C. Analysis of the formulations was performed by Almac Sciences, Souderton, Pa., USA, and concentrations were measured as 49.4 and 49.3 mg/mL for formulations #1 and #2, respectively.
Formulation #1: dose vehicle consisted of sterile water for injection, sodium chloride, sodium phosphate dibasic anhydrous, sodium bicarbonate, ethylenediaminetetraacetic acid (EDTA), and sodium thiosulfate pentahydrate, adjusted to a pH of 7.30 with HCl. After addition of lifitegrast (50 mg/mL), the pH was adjusted to 6.90. […]

CS(=O)(=O)c1cccc(C[C@H](NC(=O)c2c(Cl)cc3c(c2Cl)CCN(C(=O)c2ccc4ccoc4c2)C3)C(=O)O)c1 [lifitegrast, Lifitegrast]
safety profile in clinical trials [1]: generally well tolerated
Cmax (in vivo): ≤ 36 ng/g
Tmax (in vivo): 15 to 60 min
half-life (in vivo; plasma t1/2): 51 min
half-life (in vivo; t1/2): ~120 min
